Test results published in patent publication US20100160207A1, “Feedback Prodrug” (University of Georgia Research Foundation, Inc., priority 2006, published 2010).

How the values were obtained:
α-galactosidase = experiment: Negative enzyme control experiment, α-galactosidase; type: biochemical; conditions: 0.1 Unit, MES buffer pH 6.5, 37° C., 20 h
Method: (§1) Compounds 1 and 2 were subjected to an α-glucosidase, α-fucosidase and α-galactosidase.
(§2) Negative enzyme control experiments. A solution of compound 1 or 2 (0.004 mmol) and α-glucosidase, α-galactosidase or α-L-fucosidase (0.1 Unit) in MES buffer (0.05 M; pH 6.8 for α-glucosidase, pH 6.5 for α-galactosidase or pH 5.5 for α-L-fucosidase; 1 ml) was incubated at 37° C. for 20 h, after which the reaction mixture was freezing-dried, and the solid residue was analyzed by ^1H NMR spectrometry and mass spectrometry.

[1] = Treatment with cell lysate in the presence of swainsonine and kifunensine; type: in vitro ADME
α-L-fucosidase = experiment: Negative enzyme control experiment, α-L-fucosidase; type: biochemical; conditions: 0.1 Unit, MES buffer pH 5.5, 37° C., 20 h
Method: as §1, §2

α-glucosidase = experiment: Negative enzyme control experiment, α-glucosidase; type: biochemical; conditions: 0.1 Unit, MES buffer pH 6.8, 37° C., 20 h
Method: as §1, §2

[2] = target: T1, human lysosomal mannosidase (HLM) (Homo sapiens, UniProt O00754); experiment: Enzymatic cleavage of prodrugs by human lysosomal mannosidase monitored by 1H NMR; type: biochemical; conditions: HLM 20 mU, 80 nmol compound, sodium acetate buffer pH 5.6, 37° C.
T1 sequence (O00754 50-1011): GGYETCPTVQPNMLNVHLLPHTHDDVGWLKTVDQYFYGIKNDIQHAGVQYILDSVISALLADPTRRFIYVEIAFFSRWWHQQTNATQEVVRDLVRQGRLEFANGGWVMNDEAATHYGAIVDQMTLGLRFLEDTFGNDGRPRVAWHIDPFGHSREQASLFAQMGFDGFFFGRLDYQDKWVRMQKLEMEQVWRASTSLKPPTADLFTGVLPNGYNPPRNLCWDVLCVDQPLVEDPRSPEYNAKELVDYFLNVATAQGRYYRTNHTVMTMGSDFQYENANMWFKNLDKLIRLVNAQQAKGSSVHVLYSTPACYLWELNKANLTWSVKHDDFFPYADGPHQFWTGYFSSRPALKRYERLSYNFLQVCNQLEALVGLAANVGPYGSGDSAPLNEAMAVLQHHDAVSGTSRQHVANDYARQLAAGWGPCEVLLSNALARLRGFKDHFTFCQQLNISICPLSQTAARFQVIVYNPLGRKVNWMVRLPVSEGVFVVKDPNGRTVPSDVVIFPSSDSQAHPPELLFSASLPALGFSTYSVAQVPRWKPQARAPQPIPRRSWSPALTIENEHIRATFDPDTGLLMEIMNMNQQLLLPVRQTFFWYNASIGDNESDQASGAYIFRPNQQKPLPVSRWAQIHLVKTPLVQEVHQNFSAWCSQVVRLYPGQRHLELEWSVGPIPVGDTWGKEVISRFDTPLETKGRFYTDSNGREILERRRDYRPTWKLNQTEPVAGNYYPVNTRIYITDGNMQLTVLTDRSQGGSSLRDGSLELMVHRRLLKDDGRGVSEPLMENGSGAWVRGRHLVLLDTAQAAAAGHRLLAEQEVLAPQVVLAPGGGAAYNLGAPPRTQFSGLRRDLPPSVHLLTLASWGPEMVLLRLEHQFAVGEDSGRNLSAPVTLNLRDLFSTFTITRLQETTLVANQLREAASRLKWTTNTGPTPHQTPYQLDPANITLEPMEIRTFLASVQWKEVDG
Method: HLM ([…]) was added to a solution of 2 (a) or 1 (b) ([…]) in a deuterated sodium acetate buffer (100 mM, pH, 5.6, 0.2 mL) and the enzymatic cleavage was monitored by ^1H NMR (600 MHz).
The enzymatic cleavage of 1 and 2 by human lysosomal mannosidase (HLM) was monitored by ^1H NMR (600 MHz) (Wilson et al., Org. Lett. 1999, 1, 443) Thus, HLM (20 mU) was added to a solution of 1 or 2 (80 nmol) dissolved in a deuterated sodium acetate buffer (100 mM, pH 5.6, 0.2 mL). The progress of the reaction was monitored by the integration of key signals of the starting material, the intermediate and final product. […] In this case, the released mannostatin A (5) inhibits HLM terminating further hydrolysis of 1. Mannostatin A is a potent inhibitor of retaining α-mannosidases (Ki=90 nM, HLM) (Li et al., Chem. Bio. Chem. 2004, 5, 1220) and thus the release of low concentrations of the active compound is sufficient to abolish enzyme activity.
Kinetic measurements. A solution of compound 1 or 2 (0.08 μmol) and human lysosomal mannosidase (HLM, 0.02 Unit) in deuterated sodium acetate buffer (0.1 M; pH 5.6; 0.2 ml) was incubated at 37° C., and ^1H NMR spectra (600 MHz) were recorded at different time intervals. Relevant signals were integrated to determine the rate of enzymatic hydrolysis, and the appearance of the intermediate and the final product.

[3] = Stability measurements in deuterated sodium acetate buffer by 1H NMR; type: physicochemical; conditions: 0.4 mM, sodium acetate buffer pH 4.0, 37° C., 6 days
Method: Stability measurements. A solution of compound 1 or 2 (0.4 mM) in deuterated sodium acetate buffer (100 mM; pH 4.0; 0.2 ml) in a NMR tube was incubated at 37° C. for 6 days. ^1H NMR spectra were recorded every day.

[4] = target: T2, drosophila Golgi α-mannosidase II (dGMII) (Drosophila melanogaster, UniProt Q24451); experiment: Affinity of N-benzyl mannostatin for Golgi α-mannosidase II; type: binding
T2 sequence (Q24451 1-1108): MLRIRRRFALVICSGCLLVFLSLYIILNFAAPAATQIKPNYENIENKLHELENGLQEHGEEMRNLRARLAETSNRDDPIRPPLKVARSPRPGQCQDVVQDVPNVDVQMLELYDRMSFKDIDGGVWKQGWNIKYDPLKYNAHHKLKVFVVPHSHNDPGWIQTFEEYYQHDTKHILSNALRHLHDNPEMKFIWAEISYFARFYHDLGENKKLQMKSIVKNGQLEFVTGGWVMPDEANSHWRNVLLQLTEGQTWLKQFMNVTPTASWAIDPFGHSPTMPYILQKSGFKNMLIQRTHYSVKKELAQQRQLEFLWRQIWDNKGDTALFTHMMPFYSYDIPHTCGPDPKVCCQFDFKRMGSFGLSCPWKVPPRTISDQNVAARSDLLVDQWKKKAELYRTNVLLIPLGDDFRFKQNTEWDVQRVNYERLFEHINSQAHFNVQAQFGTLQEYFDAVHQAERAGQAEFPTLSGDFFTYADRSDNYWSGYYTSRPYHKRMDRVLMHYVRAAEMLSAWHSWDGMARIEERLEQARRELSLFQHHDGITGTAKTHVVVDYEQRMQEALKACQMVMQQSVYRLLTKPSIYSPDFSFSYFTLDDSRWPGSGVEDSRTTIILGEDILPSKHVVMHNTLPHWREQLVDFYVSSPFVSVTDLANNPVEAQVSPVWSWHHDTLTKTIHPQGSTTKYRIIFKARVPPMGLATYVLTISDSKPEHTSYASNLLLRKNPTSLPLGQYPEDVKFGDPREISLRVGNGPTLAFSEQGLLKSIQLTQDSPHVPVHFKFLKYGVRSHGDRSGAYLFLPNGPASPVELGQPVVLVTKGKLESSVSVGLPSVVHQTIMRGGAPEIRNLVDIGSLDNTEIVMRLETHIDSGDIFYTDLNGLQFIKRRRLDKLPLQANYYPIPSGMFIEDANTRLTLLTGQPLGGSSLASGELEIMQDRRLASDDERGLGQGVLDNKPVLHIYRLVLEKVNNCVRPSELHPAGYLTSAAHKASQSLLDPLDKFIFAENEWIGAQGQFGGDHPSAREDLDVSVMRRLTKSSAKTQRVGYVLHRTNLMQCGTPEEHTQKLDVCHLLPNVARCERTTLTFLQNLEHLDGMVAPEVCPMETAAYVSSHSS
From the text: The finding was ultimately explained by careful examination of the crystal structure of dGMII with the synthetic inhibitor; see Kawatkar et al., J. Am. Chem. Soc., 128, 8310-8319 (2006).

| SMILES | decomposition by α-galactosidase (α-galactosidase) | decomposition in cell lysate [1] | decomposition by α-L-fucosidase (α-L-fucosidase) | decomposition by α-glucosidase (α-glucosidase) | enzymatic hydrolysis of the prodrug by HLM [2] | decomposition in buffer [3] | affinity compared with mannostatin A [4] |
| --- | --- | --- | --- | --- | --- | --- | --- |
| CSC1C(O)C(O)C(O)C1NC(=O)OCc1ccc(O[C@H]2O[C@H](CO)[C@@H](O)[C@H](O)[C@@H]2O)cc1 (stereo partly drawn) [Compound 1, 1D-(1,2,3,4/5)-4-[4-(α-D-mannopyranosyloxy)-benzyloxycarbonyl]amino-5-(methylsulfanyl)cyclopentane-1,2,3-triol] | No decomposition of product was observed | did not lead to decomposition | No decomposition of product was observed | No decomposition of product was observed | virtually no hydrolysis was observed | No decomposition of product was observed |  |
| CSC1C(O)C(O)C(O)C1NCc1ccccc1 (stereo not shown) [N-benzyl mannostatin] |  |  |  |  |  |  | slightly reduced affinity |
